Data taken from patent US7192906B2, “Substituted pyrazole derivatives, production process thereof, and herbicide compositions containing the derivatives” (SDS Biotech K.K., priority 2001, dated 2007).

Legend:
Format in all cases: in vivo
Chenopodium album [1] = test: Test Example 1 upland field foliage treatment; details: Table 4, upland field foliage treatment, index 0-5
How it was run: (§1)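 Post-emergence foliar spray of water-diluted wettable powder at 1 kg active ingredient per hectare, applied 14 days after sowing in upland soil. Weed control or crop phytotoxicity rated 21 days later on a 0–5 scale (5: ≥90%, 0: <10%).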

Digitaria adscendens [2] = test: Test Example 1 upland field foliage treatment; details: Table 4, upland field foliage treatment, index 0-5
How it was run: as §1

Setaria viridis [3] = test: Test Example 1 upland field foliage treatment; details: Table 4, upland field foliage treatment, index 0-5
How it was run: as §1

Stellaria media [4] = test: Test Example 1 upland field foliage treatment; details: Table 4, upland field foliage treatment, index 0-5
How it was run: as §1

soybean (Glycine max) [5] = test: Test Example 1 upland field foliage treatment, crop phytotoxicity; details: Table 4, upland field foliage treatment, index 0-5
How it was run: as §1

[6] = test system: wheat (Triticum aestivum); test: as above; details: Table 4, upland field foliage treatment, index 0-5
How it was run: as §1

Chenopodium album [7] = test: Test Example 2 upland soil treatment; details: Table 5, upland soil treatment, index 0-5
How it was run: (§2)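 Pre-emergence soil application the day after sowing, active ingredient at 1 kg per hectare as diluted wettable powder, seeds covered with about 1 cm soil. Assessed 21 days after application on a 0–5 scale (5 = ≥90% herbicidal effect or phytotoxicity; 0 = <10%).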

Digitaria adscendens [8] = test: Test Example 2 upland soil treatment; details: Table 5, upland soil treatment, index 0-5
How it was run: as §2

Setaria viridis [9] = test: Test Example 2 upland soil treatment; details: Table 5, upland soil treatment, index 0-5
How it was run: as §2

Stellaria media [10] = test: Test Example 2 upland soil treatment; details: Table 5, upland soil treatment, index 0-5
How it was run: as §2

soybean (Glycine max) [11] = test: Test Example 2 upland soil treatment, crop phytotoxicity; details: Table 5, upland soil treatment, index 0-5
How it was run: as §2

[12] = test system: wheat (Triticum aestivum); test: as above; details: Table 5, upland soil treatment, index 0-5
How it was run: as §2

Ammannia multiflora = test: Test Example 3 paddy field treatment; details: Table 6, paddy field treatment, active ingredient 1 kg per hectare, 21st day after dropping, index 0-5
How it was run: (§3)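 Weed seeds sown in puddled paddy soil under 4 cm water, with two-leaf Koshihikari rice transplanted; 10 days later a wettable powder was applied to the water surface at 1 kg active ingredient/ha. Scored 21 days after application on a 0–5 scale (0 = <10%, 5 = ≥90% herbicidal effect or phytotoxicity).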

Echinochloa crusgalli = test: Test Example 3 paddy field treatment; details: Table 6, paddy field treatment, active ingredient 1 kg per hectare, 21st day after dropping, index 0-5
How it was run: as §3

Monochoria vaginalis = test: Test Example 3 paddy field treatment; details: Table 6, paddy field treatment, active ingredient 1 kg per hectare, 21st day after dropping, index 0-5
How it was run: as §3

Scirpus juncoides = test: Test Example 3 paddy field treatment; details: Table 6, paddy field treatment, active ingredient 1 kg per hectare, 21st day after dropping, index 0-5
How it was run: as §3

Rice (Oryza sativa) = test: Test Example 3 paddy field treatment, crop phytotoxicity; details: Table 6, paddy field treatment, transplanted rice, active ingredient 1 kg per hectare, 21st day after dropping, index 0-5
How it was run: as §3

SMILES | Herbicidal activity CA: Chenopodium album (Chenopodium album [1]) | Herbicidal activity DA: Digitaria adscendens (Digitaria adscendens [2]) | Herbicidal activity SV: Setaria viridis (Setaria viridis [3]) | Herbicidal activity SM: Stellaria media (Stellaria media [4]) | Herbicidal activity (phytotoxicity) GM: Soybean (Glycine max) (soybean (Glycine max) [5]) | Herbicidal activity (phytotoxicity) TA: Wheat (Triticum aestivum) [6] | Herbicidal activity CA: Chenopodium album (Chenopodium album [7]) | Herbicidal activity DA: Digitaria adscendens (Digitaria adscendens [8]) | Herbicidal activity SV: Setaria viridis (Setaria viridis [9]) | Herbicidal activity SM: Stellaria media (Stellaria media [10]) | Herbicidal activity (phytotoxicity) GM: Soybean (Glycine max) (soybean (Glycine max) [11]) | Herbicidal activity (phytotoxicity) TA: Wheat (Triticum aestivum) [12] | Herbicidal activity AM (Ammannia multiflora) | Herbicidal activity EC (Echinochloa crusgalli) | Herbicidal activity MV (Monochoria vaginalis) | Herbicidal activity SJ (Scirpus juncoides) | Herbicidal activity (phytotoxicity) OS (Rice (Oryza sativa))
CNC(=O)C(Cn1cc(C)c(-c2ccc(F)cc2F)n1)=NOC [Compound 56] | 5 (herbicidal effect of not less than 90%, or phytotoxicity of 90% or more) | 5 (herbicidal effect of not less than 90%, or phytotoxicity of 90% or more) | 5 (herbicidal effect of not less than 90%, or phytotoxicity of 90% or more) | 5 (herbicidal effect of not less than 90%, or phytotoxicity of 90% or more) | 0 (herbicidal effect of not less than 0% and less than 10%, or phytotoxicity of 0% or more and less than 10%) | 0 (herbicidal effect of not less than 0% and less than 10%, or phytotoxicity of 0% or more and less than 10%) | 5 (herbicidal effect of not less than 90%, or phytotoxicity of 90% or more) | 5 (herbicidal effect of not less than 90%, or phytotoxicity of 90% or more) | 5 (herbicidal effect of not less than 90%, or phytotoxicity of 90% or more) | 5 (herbicidal effect of not less than 90%, or phytotoxicity of 90% or more) | 1 (herbicidal effect of not less than 10% and less than 30%, or phytotoxicity of 10% or more and less than 30%) | 0 (herbicidal effect of not less than 0% and less than 10%, or phytotoxicity of 0% or more and less than 10%) | 5 (herbicidal effect of not less than 90%, or phytotoxicity of 90% or more) | 5 (herbicidal effect of not less than 90%, or phytotoxicity of 90% or more) | 5 (herbicidal effect of not less than 90%, or phytotoxicity of 90% or more) | 5 (herbicidal effect of not less than 90%, or phytotoxicity of 90% or more) | 0 (herbicidal effect of not less than 0% and less than 10%, or phytotoxicity of 0% or more and less than 10%)
CNC(=O)C(Cn1cc(C)c(-c2cc(F)ccc2F)n1)=NOC [Compound 57] | 5 (herbicidal effect of not less than 90%, or phytotoxicity of 90% or more) | 5 (herbicidal effect of not less than 90%, or phytotoxicity of 90% or more) | 5 (herbicidal effect of not less than 90%, or phytotoxicity of 90% or more) | 5 (herbicidal effect of not less than 90%, or phytotoxicity of 90% or more) | 0 (herbicidal effect of not less than 0% and less than 10%, or phytotoxicity of 0% or more and less than 10%) | 0 (herbicidal effect of not less than 0% and less than 10%, or phytotoxicity of 0% or more and less than 10%) | 5 (herbicidal effect of not less than 90%, or phytotoxicity of 90% or more) | 5 (herbicidal effect of not less than 90%, or phytotoxicity of 90% or more) | 5 (herbicidal effect of not less than 90%, or phytotoxicity of 90% or more) | 5 (herbicidal effect of not less than 90%, or phytotoxicity of 90% or more) | 0 (herbicidal effect of not less than 0% and less than 10%, or phytotoxicity of 0% or more and less than 10%) | 0 (herbicidal effect of not less than 0% and less than 10%, or phytotoxicity of 0% or more and less than 10%) | 5 (herbicidal effect of not less than 90%, or phytotoxicity of 90% or more) | 5 (herbicidal effect of not less than 90%, or phytotoxicity of 90% or more) | 5 (herbicidal effect of not less than 90%, or phytotoxicity of 90% or more) | 5 (herbicidal effect of not less than 90%, or phytotoxicity of 90% or more) | 0 (herbicidal effect of not less than 0% and less than 10%, or phytotoxicity of 0% or more and less than 10%)
CNC(=O)C(Cn1cc(C)c(-c2ccc(F)c(F)c2)n1)=NOC [Compound 59] | 5 (herbicidal effect of not less than 90%, or phytotoxicity of 90% or more) | 5 (herbicidal effect of not less than 90%, or phytotoxicity of 90% or more) | 5 (herbicidal effect of not less than 90%, or phytotoxicity of 90% or more) | 5 (herbicidal effect of not less than 90%, or phytotoxicity of 90% or more) | 0 (herbicidal effect of not less than 0% and less than 10%, or phytotoxicity of 0% or more and less than 10%) | 0 (herbicidal effect of not less than 0% and less than 10%, or phytotoxicity of 0% or more and less than 10%) | 5 (herbicidal effect of not less than 90%, or phytotoxicity of 90% or more) | 5 (herbicidal effect of not less than 90%, or phytotoxicity of 90% or more) | 5 (herbicidal effect of not less than 90%, or phytotoxicity of 90% or more) | 5 (herbicidal effect of not less than 90%, or phytotoxicity of 90% or more) | 0 (herbicidal effect of not less than 0% and less than 10%, or phytotoxicity of 0% or more and less than 10%) | 0 (herbicidal effect of not less than 0% and less than 10%, or phytotoxicity of 0% or more and less than 10%) | 5 (herbicidal effect of not less than 90%, or phytotoxicity of 90% or more) | 5 (herbicidal effect of not less than 90%, or phytotoxicity of 90% or more) | 5 (herbicidal effect of not less than 90%, or phytotoxicity of 90% or more) | 5 (herbicidal effect of not less than 90%, or phytotoxicity of 90% or more) | 0 (herbicidal effect of not less than 0% and less than 10%, or phytotoxicity of 0% or more and less than 10%)
